In one assay the test system is HCC827. Briefly: Antiproliferative activity against human HCC827 cells assessed as cell growth inhibition incubated for 3 days by CCK-8 assay. Format: functional. To be noted: HCC827, 72 h, time 3 day.
Assay [1] deals with von Hippel-Lindau disease tumor suppressor/Epidermal growth factor receptor (Homo sapiens), P00533+P40337 [UNDEFINED MUTATION]. Briefly: PROTAC activity at VHL/EGFR Del19 mutant in human HCC827 cells assessed as EGFR degradation treated after 8 hrs under serum starvation condition at 10 to 1000 nM measured after 16 hrs by Western blotting analysis. The class given is cell-based. To be noted: dose 10-1000 nM.

Assay [2] deals with Epidermal growth factor receptor (Homo sapiens, UniProt P00533, L858R). The experiment in a line: Binding affinity to human partial length EGFR (R669 to V1011 residues) L858R mutant expressed in bacterial expression system assessed as immobilized ligand binding by competitive binding assay.
For assay [3], the target named is Epidermal growth factor receptor (Homo sapiens, UniProt P00533). Briefly: Binding affinity to human wild type partial length EGFR (R669 to V1011 residues) expressed in bacterial expression system assessed as immobilized ligand binding by competitive binding assay.
For the next assay, the system named is OVCAR-8. The experiment in a line: Antiproliferative activity against human OVCAR-8 cells expressing wild type EGFR assessed as cell growth inhibition at 1 uM in presence of pictilisib. Format: functional, cell-based.
A further assay deals with NCI-H1299. The experiment in a line: Antiproliferative activity against human NCI-H1299 cells expressing wild type EGFR assessed as cell growth inhibition at 1 uM in presence of pictilisib. Format: functional, cell-based.
Assay [4] deals with T1, von Hippel-Lindau disease tumor suppressor/Epidermal growth factor receptor (Homo sapiens, UniProt P00533+P40337). The experiment in a line: PROTAC activity at VHL/EGFR Del19 mutant in human HCC827 cells. Format: cell-based.
Assay [5] addresses T1, von Hippel-Lindau disease tumor suppressor/Epidermal growth factor receptor. The experiment in a line: PROTAC activity at VHL/wild type EGFR in human OVCAR-8 cells assessed as EGFR degradation measured after 24 hrs by Immunoblotting analysis. The class given is cell-based.
Target sequence in this assay (P00533 whole entry): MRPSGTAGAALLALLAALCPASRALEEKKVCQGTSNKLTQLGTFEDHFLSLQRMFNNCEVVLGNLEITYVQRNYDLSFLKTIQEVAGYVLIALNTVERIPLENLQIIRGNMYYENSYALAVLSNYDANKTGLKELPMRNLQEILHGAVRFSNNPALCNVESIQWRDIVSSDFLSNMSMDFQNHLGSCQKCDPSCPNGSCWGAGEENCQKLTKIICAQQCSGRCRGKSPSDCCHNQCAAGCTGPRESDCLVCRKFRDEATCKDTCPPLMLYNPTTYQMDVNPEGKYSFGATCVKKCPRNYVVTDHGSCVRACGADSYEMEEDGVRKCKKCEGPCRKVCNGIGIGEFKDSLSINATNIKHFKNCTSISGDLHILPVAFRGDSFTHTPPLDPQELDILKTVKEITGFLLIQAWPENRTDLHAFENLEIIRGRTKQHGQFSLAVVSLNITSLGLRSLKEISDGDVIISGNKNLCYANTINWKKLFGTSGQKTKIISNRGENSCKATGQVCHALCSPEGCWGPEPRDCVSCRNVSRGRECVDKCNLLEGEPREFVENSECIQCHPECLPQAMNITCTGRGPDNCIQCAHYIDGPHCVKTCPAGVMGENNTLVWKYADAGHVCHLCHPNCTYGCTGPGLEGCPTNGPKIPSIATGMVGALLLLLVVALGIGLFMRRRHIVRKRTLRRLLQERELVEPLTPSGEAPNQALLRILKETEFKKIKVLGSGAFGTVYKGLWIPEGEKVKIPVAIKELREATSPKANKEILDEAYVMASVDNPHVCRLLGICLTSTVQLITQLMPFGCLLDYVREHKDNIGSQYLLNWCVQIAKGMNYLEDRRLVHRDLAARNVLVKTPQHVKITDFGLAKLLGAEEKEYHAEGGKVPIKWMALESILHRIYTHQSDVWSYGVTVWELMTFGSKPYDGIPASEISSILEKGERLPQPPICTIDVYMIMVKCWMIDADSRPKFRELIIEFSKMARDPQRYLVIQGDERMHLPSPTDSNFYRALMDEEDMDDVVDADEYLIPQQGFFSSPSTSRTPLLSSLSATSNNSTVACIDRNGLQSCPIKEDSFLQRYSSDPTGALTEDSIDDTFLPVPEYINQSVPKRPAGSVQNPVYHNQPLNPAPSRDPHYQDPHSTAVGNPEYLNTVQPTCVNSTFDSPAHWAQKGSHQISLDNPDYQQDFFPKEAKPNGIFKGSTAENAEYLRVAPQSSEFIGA
Target sequence in this assay (P40337 whole entry): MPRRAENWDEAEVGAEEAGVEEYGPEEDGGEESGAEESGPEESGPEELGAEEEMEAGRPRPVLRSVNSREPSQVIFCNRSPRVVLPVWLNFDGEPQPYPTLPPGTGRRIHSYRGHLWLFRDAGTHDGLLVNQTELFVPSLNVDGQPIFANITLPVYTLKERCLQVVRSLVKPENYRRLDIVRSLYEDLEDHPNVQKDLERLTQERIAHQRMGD
The test system of assay [6] is Protein cereblon/Epidermal growth factor receptor (Homo sapiens), P00533+Q96SW2 [UNDEFINED MUTATION]. Briefly: PROTAC activity at CRBN/EGFR Del19 mutant in human HCC827 cells assessed as EGFR degradation treated after 8 hrs under serum starvation condition at 100 nM measured after 16 hrs by Western blotting analysis. The class given is cell-based.
For assay [7] the test system is unchanged. The experiment in a line: PROTAC activity at CRBN/EGFR Del19 mutant in human HCC827 cells assessed as EGFR degradation treated after 8 hrs under serum starvation condition at 1 uM measured after 16 hrs by Western blotting analysis. The class given is cell-based.

The source made the active and inactive calls. No cut-off for these calls is given here.

Chain of von Hippel-Lindau disease tumor suppressor/Epidermal growth factor receptor (Homo sapiens), P00533+P40337 [UNDEFINED MUTATION] (P00533 whole entry, looked up, stated change not applied): as the sequence (P00533 whole entry) above
Chain of von Hippel-Lindau disease tumor suppressor/Epidermal growth factor receptor (Homo sapiens), P00533+P40337 [UNDEFINED MUTATION] (P40337 whole entry, looked up, stated change not applied): as the sequence (P40337 whole entry) above
Chain of Protein cereblon/Epidermal growth factor receptor (Homo sapiens), P00533+Q96SW2 [UNDEFINED MUTATION] (P00533 whole entry, looked up, stated change not applied): as the sequence (P00533 whole entry) above
Chain of Protein cereblon/Epidermal growth factor receptor (Homo sapiens), P00533+Q96SW2 [UNDEFINED MUTATION] (Q96SW2 whole entry, looked up, stated change not applied): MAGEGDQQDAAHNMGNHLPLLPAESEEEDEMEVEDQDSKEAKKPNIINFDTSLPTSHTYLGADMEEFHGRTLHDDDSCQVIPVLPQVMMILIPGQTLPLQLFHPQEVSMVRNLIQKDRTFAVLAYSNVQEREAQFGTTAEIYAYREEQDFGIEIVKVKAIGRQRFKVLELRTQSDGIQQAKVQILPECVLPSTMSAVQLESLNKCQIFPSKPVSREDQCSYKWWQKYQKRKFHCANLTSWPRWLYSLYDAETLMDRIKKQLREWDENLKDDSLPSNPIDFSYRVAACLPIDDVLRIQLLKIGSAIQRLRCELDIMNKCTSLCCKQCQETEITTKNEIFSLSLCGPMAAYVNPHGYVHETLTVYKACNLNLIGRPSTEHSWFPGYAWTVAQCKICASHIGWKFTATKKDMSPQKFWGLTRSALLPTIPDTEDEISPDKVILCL

In the case of `COc1cc2ncnc(Nc3ccc(F)c(Cl)c3)c2cc1OCCCN1CCN(C(=O)CCOCCOCCOCCOCCNc2ccc3c(c2)C(=O)N(C2CCC(=O)NC2=O)C3=O)CC1` (stereo unspecified), the GI50 in the assay with HCC827 came to 930 nM.
Same read-out and setting: for `COc1cc2ncnc(Nc3ccc(F)c(Cl)c3)c2cc1OCCCN1CCN(C(=O)CCCCNC(=O)C[C@H](NC(=O)[C@@H]2C[C@@H](O)CN2C(=O)[C@@H](c2cc(C)no2)C(C)C)c2ccc(-c3scnc3C)cc2)CC1` the value was 770 nM.
Turning to `COc1cc2ncnc(Nc3ccc(F)c(Cl)c3)c2cc1OCCCN1CCN(C(=O)CCCCCCCCNC(=O)C[C@H](NC(=O)[C@@H]2C[C@@H](O)CN2C(=O)[C@@H](c2cc(C)no2)C(C)C)c2ccc(-c3scnc3C)cc2)CC1`, the GI50 with HCC827 came out at 460 nM. Moreover, the result in [1] was Active.
Turning to `COc1cc2ncnc(Nc3ccc(F)c(Cl)c3)c2cc1OCCCN1CCN(C(=O)CCOCCOCCOCCOCCOCCNc2ccc3c(c2)C(=O)N(C2CCC(=O)N(C)C2=O)C3=O)CC1` (stereo unspecified), the Kd in assay [2] came to 2.9 nM; in [3] it was 6.4 nM.
As to `COc1cc2ncnc(Nc3ccc(F)c(Cl)c3)c2cc1OCCCN1CCN(C(=O)CCCNC(=O)C[C@H](NC(=O)[C@@H]2C[C@@H](O)CN2C(=O)[C@@H](c2cc(C)no2)C(C)C)c2ccc(-c3scnc3C)cc2)CC1`, in the assay with HCC827, the GI50 worked out at 880 nM. Also, in assay [1], the outcome was Active.
On to `COc1cc2ncnc(Nc3ccc(F)c(Cl)c3)c2cc1OCCCN1CCN(C(=O)CCCCCCCCCC(=O)N[C@H](C(=O)N2C[C@H](O)C[C@H]2C(=O)NCc2ccc(-c3scnc3C)cc2)C(C)(C)C)CC1`, for which the GI50 in the assay on HCC827 was determined as 230 nM. The outcome with OVCAR-8 and in the assay on NCI-H1299 was Active.
Regarding `COc1cc2ncnc(Nc3ccc(F)c(Cl)c3)c2cc1OCCCN1CCN(C(=O)CCCCCCCCCCNC(=O)C[C@H](NC(=O)[C@@H]2C[C@@H](O)CN2C(=O)[C@@H](c2cc(C)no2)C(C)C)c2ccc(-c3scnc3C)cc2)CC1`, the GI50 in the assay on HCC827 turned out to be 250 nM. Also, the result in the assay with OVCAR-8 and in the assay on NCI-H1299 was Active.
The compound `Cc1ncsc1-c1ccc(CNC(=O)[C@@H]2C[C@@H](O)CN2C(=O)[C@@H](NC(=O)CCCCCCCCCCn2cc(COc3cc4ncnc(Nc5ccc(F)c(Cl)c5)c4cc3NC(=O)/C=C/CN3CCCCC3)nn2)C(C)(C)C)cc1` gave a DC50 in assay [4] of 3.6 nM.
As for `COc1cc2ncnc(Nc3ccc(F)c(Cl)c3)c2cc1OCCCN1CCN(C(=O)CCOCCOCCOCCOCCOCCNc2ccc3c(c2)C(=O)N(C2CCC(=O)NC2=O)C3=O)CC1` (stereo unspecified), in the assay with HCC827, the GI50 came to 870 nM. For the same compound, the result in the assay on OVCAR-8 and in the assay on NCI-H1299 was Active.
With `COc1cc2ncnc(Nc3ccc(F)c(Cl)c3)c2cc1OCCCN1CCN(C(=O)CCCCCCCNC(=O)C[C@H](NC(=O)[C@@H]2C[C@@H](O)CN2C(=O)[C@@H](c2cc(C)no2)C(C)C)c2ccc(-c3scnc3C)cc2)CC1`, in the assay on HCC827, the GI50 was 610 nM. Moreover, the result in assay [1] was Active.
As to `Cc1ncsc1-c1ccc(CNC(=O)[C@@H]2C[C@@H](O)CN2C(=O)[C@@H](NC(=O)COCCOCCOc2ccc(-c3ccc4ncnc(Nc5ccc(OCc6cccc(F)c6)c(Cl)c5)c4c3)cc2)C(C)(C)C)cc1`, the DC50 in assay [5] amounted to 39 nM.
For the compound `COc1cc2ncnc(Nc3ccc(F)c(Cl)c3)c2cc1OCCCN1CCN(C(=O)CNC(=O)C[C@H](NC(=O)[C@@H]2C[C@@H](O)CN2C(=O)[C@@H](c2cc(C)no2)C(C)C)c2ccc(-c3scnc3C)cc2)CC1`, the GI50 with HCC827 was 710 nM. For the same compound, in assay [1], the result was Active.
With `COc1cc2ncnc(Nc3ccc(F)c(Cl)c3)c2cc1OCCCN1CCN(CCC(=O)NCCCCCCCCNc2ccc3c(c2)C(=O)N(C2CCC(=O)NC2=O)C3=O)CC1` (stereo unspecified), the outcome in [6] and in [7] was Active.
Take `COc1cc2ncnc(Nc3ccc(F)c(Cl)c3)c2cc1OCCCN1CCN(C(=O)CCCCCCCCCNC(=O)C[C@H](NC(=O)[C@@H]2C[C@@H](O)CN2C(=O)[C@@H](c2cc(C)no2)C(C)C)c2ccc(-c3scnc3C)cc2)CC1`: in the assay on HCC827, the GI50 is 590 nM. Besides, in assay [1], the result was Active.
As to `COc1cc2ncnc(Nc3ccc(F)c(Cl)c3)c2cc1OCCCN1CCN(CCC(=O)NCCCCCCCCOc2cccc3c2C(=O)N(C2CCC(=O)NC2=O)C3)CC1` (stereo unspecified), in the assay with HCC827, the 50% growth inhibitory concentration (GI50) was determined as 660 nM. For the same compound, the outcome in the assay on OVCAR-8 and in the assay with NCI-H1299 was Active.
As for `COc1cc2ncnc(Nc3ccc(F)c(Cl)c3)c2cc1OCCCN1CCN(C(=O)CCNC(=O)C[C@H](NC(=O)[C@@H]2C[C@@H](O)CN2C(=O)[C@@H](c2cc(C)no2)C(C)C)c2ccc(-c3scnc3C)cc2)CC1`, the GI50 in the assay on HCC827 came to 780 nM. Besides, the outcome in assay [1] was Active.
Turning to `COc1cc2ncnc(Nc3ccc(F)c(Cl)c3)c2cc1OCCCN1CCN(C(=O)CCNC(=O)C[C@H](NC(=O)[C@@H]2C[C@@H](O)CN2C(=O)[C@@H](NC(=O)C2(F)CC2)C(C)(C)C)c2ccc(-c3scnc3C)cc2)CC1`, the GI50 with HCC827 is 1020 nM.
On to `COc1cc2ncnc(Nc3ccc(F)c(Cl)c3)c2cc1OCCCN1CCN(C(=O)CCCCCNC(=O)C[C@H](NC(=O)[C@@H]2C[C@@H](O)CN2C(=O)[C@@H](c2cc(C)no2)C(C)C)c2ccc(-c3scnc3C)cc2)CC1`, for which the GI50 in the assay on HCC827 came out at 790 nM. For the same compound, the result in assay [1] was Active.
For `COc1cc2ncnc(Nc3ccc(F)c(Cl)c3)c2cc1OCCCN1CCN(C(=O)C[C@H](NC(=O)[C@@H]2C[C@@H](O)CN2C(=O)[C@@H](c2cc(C)no2)C(C)C)c2ccc(-c3scnc3C)cc2)CC1`, the GI50 in the assay with HCC827 was 730 nM.

The values above are taken from ChEMBL document CHEMBL5131542, “Exploring Degradation of Mutant and Wild-Type Epidermal Growth Factor Receptors Induced by Proteolysis-Targeting Chimeras” (J Med Chem, 2022).
